In US20220096511A1, “ANTIFUNGAL AGENTS WITH IMPROVED WATER SOLUBILITY” (priority 2019, published 2022):
Values after ≈ are worked out from the molar mass of the structure shown. Where two headings read alike, the source gives them in different places.

How the values were obtained:
[1] = tested on: Candida albicans; experiment: Minimum inhibitory concentration (MIC) testing, diffusion disc assay; assay type: cell-based; conditions: for Inhibition of Candida albicans (MIC): diffusion paper disc, overnight at 30° C., average of three experiments
Description: (§1) Minimum inhibitory concentration (MIC) testing was determined for nystatin ethanol amide along with comparative antifungal agents.
(§2) Nystatin (Solid) and amphotericin were dissolved in DMF in 1 mg/mL. Econazole nitrate and Nystatin ethanol amide (salt) were dissolved in PBS to achieve 1 mg/mL.
(§3) Antibiotic medium 19 was sterilized in autoclave, after sterilization when the temperature lowered to 45° C. and 1 mL from spore suspension was added. 8 mL from this mixture dispensed to each petri dish.
(§4) On each dish 6 sterile diffusion paper disc were placed, 10 μL from each antibiotic were applied in 10, 15, 20, 25, 30, 35 μg/mL concentrations. Where MIC concentrations were below 10, lower concentrations were used: 2, 5, 7.5 μg/mL
(§5) The petri dishes were incubated overnight at 30° C. The MIC were determined as the lower concentration that inhibition could be visualized.
(§6) Observations. In this diffusion disc assay we measured the minimal concentration applied by each compound needed to inhibit the growth of C. albicans and A. niger. […] Amphotericin B inhibit the growth of C. albicans (16 μg/mL) similarly to Nystatin and Nystatin water soluble.

[2] = tested on: Aspergillus niger; experiment: as above; assay type: cell-based; conditions: for MIC: Aspergillus niger, read-out: Inhibition of Aspergillus niger (MIC)
Description: as §1, §2, §3, §4, §5, §6

[3] = tested on: hep2 cell line; experiment: Toxicity: viability of hep2 cell line after incubation with the compound; assay type: cell-based; conditions: compared with nystatin
Description: Toxicity: Toxicity was tested with hep2 cell line by checking their viability after incubation with the compound. The amount of the compound that corresponds to 50% cell viability is the maximum amount of compound that can be apply on to cell culture.

[4] = tested on: microorganisms; experiment: Potency testing, cylinder plate assay, method USP <81>; assay type: cell-based; conditions: for 1 mg
Source text: The terms “antifungal activity” or “potency,” these terms being used interchangeably, refer to the inhibitory effect of an antifungal agent on microorganisms under suitable conditions as measured using a standard analytical method, such as the methods established by the United States Pharmacopeial Convention (USP).
Potency testing is done using a cylinder plate assay using the methods described in U.S. Pharmacopeia, e.g., Pharmacopeial Forum, Vol. 36(6) [November-December 2010] <81> Antibiotics—Microbial Assays, USP 32 page 86 ff.
FIG. 5 is a photo showing the results of potency testing according to method USP/81 of the nystatin ethanol amide product.

[5] = Endotoxin testing (LAL); conditions: standard methods
Description: Endotoxin testing (LAL) was performed using standard methods and found to be <30 Eu/mg.

[6] = diffusion paper disc, overnight at 30° C., average of three experiments

| Molecule | Inhibition of Candida albicans (MIC) [1] | Inhibition of Aspergillus niger (MIC) [2, 6] | other results |
| --- | --- | --- | --- |
| Clc1ccc(COC(Cn2ccnc2)c2ccc(Cl)cc2Cl)cc1 (stereo not drawn) [Econazole, Econazole nitrate] | No inhibition | No inhibition |  |
| C[C@@H]1[C@H](O)[C@@H](C)/C=C/C=C/CC/C=C/C=C/C=C/C=C/C(O[C@H]2O[C@H](C)[C@@H](O)[C@H](N)[C@@H]2O)CC2O[C@](O)(CC(O)C(O)CCC(O)CC(O)CC(O)CC(=O)O[C@H]1C)CC(O)C2C(=O)O (stereo partly drawn) [Nystatin] | 14 µg/mL | 22.5 µg/mL |  |
| C[C@@H]1[C@H](O)[C@@H](C)/C=C/C=C/CC/C=C/C=C/C=C/C=C/[C@H](O[C@@H]2O[C@H](C)[C@@H](O)[C@H](N)[C@@H]2O)C[C@@H]2O[C@](O)(C[C@@H](O)[C@H](O)CC[C@@H](O)C[C@@H](O)C[C@@H](O)CC(=O)O[C@H]1C)C[C@H](O)[C@H]2C(=O)NCCO [Nystatin ethanol amide] |  |  | Toxicity (amount of compound corresponding to 50% cell viability) [3]: the same or better than the unsalable nystatin; potency [4]: 5500-6500 U; Endotoxin (LAL) [5]: < 30 Eu/mg; MIC ([1]; Candida albicans, read-out: Inhibition of Candida albicans (MIC)): 15.7 µg/mL (≈ 16.2 µM); MIC [2]: 23.6 µg/mL (≈ 24.4 µM) |
| Nystatin Methyl ester | 30 µg/mL | No inhibition | Inhibition of Aspergillus niger (MIC) ([2]; diffusion paper disc, overnight at 30° C., average of three experiments, listed as Nystatin methyl ester): no observed inhibition |
| C[C@@H]1[C@H](O)[C@@H](C)/C=C/C=C/C=C/C=C/C=C/C=C/C=C/[C@H](O[C@@H]2O[C@H](C)[C@@H](O)[C@H](N)[C@@H]2O)C[C@@H]2O[C@](O)(C[C@@H](O)C[C@@H](O)[C@H](O)CC[C@@H](O)C[C@@H](O)CC(=O)O[C@H]1C)C[C@H](O)[C@H]2C(=O)O [Amphotericin, amphotericin B] |  |  | MIC [2, 6]: 31.5 µg/mL (≈ 34.1 µM) |
| Polymixin B | No inhibition | No inhibition |  |
